“Also recorded” adds a separate entry of the source.
Legend:
rMAO-A = biological target: T1, rMAO-A (Rattus norvegicus, UniProt P21396); test: Inhibition of rMAO-A in crude rat brain mitochondria (5-HT substrate, HPLC-ED); format: biochemical; conditions: substrate 5-HT
T1 construct: using a suspension of crude rat brain mitochondria as enzyme source; from tissue; host or cells: rat brain (crude mitochondrial suspension)
T1 sequence (P21396 1-526): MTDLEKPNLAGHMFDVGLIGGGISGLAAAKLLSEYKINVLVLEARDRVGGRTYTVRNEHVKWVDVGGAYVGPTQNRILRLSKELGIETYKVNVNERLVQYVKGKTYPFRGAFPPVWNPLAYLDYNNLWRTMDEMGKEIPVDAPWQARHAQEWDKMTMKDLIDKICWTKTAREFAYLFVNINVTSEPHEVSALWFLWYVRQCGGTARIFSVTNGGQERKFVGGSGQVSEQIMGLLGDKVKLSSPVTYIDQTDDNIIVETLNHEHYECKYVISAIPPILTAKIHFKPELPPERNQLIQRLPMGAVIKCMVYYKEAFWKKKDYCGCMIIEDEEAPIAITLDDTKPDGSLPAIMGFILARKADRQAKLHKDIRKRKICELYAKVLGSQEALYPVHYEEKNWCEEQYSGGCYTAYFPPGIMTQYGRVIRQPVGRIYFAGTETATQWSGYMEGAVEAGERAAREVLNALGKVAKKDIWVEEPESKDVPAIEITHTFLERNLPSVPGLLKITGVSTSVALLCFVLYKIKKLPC
Method: (§1) Fourteen derivatives differing in the substitution pattern of the cinnamyl benzene ring were studied, these compounds were tested on rat MAO-A and B to determine their inhibitory activity MAO. A general screening was carried out at 10 µM finding moderate activity for some of the compounds against rMAO-B but none against rMAO-A. Thus, five molecules were identified as possibly selective IMAO-B.
(§2) The effect of coumarin derivatives on MAO-A and MAO-B were measured using a suspension of crude rat brain mitochondria as enzyme source. 4-Dimethylaminophenethylamine (4-DMAPEA, 2.5 µM) and 5-hydroxytryptamine (5-HT, […]) were used as substrates selective of MAO-B or MAO-A, respectively. Evaluation of the test compounds on rMAO activity was executed by measuring their effects on the production of 4-dimethylaminophenylacetic acid (DMAPAA) by rMAO-B and 5-hydroxyindoleacetic acid (5-HIAA) by rMAO-A with O2 using HPLC-ED (L-7110 LaChrom and amperometric detector L-3500 LaChrom Recipe, Hitachi, (Tokyo, Japan) (for more detail see methodological references). The IC50 values (average ± SD was measured in two independent experiments each in triplicate) were assessed representing percentage of inhibition in function of the negative logarithm of different inhibitor concentrations (10^−4 to 10^−8) using the GraphPad Prism software.

rMAO-B = biological target: T2, rMAO-B (Rattus norvegicus, UniProt P19643); test: Inhibition of rMAO-B in crude rat brain mitochondria (4-DMAPEA substrate, HPLC-ED); format: biochemical; conditions: for IC50: crude rat brain mitochondria, substrate 4-DMAPEA 2.5 µM
T2 construct: using a suspension of crude rat brain mitochondria as enzyme source; from tissue; host or cells: rat brain (crude mitochondrial suspension)
T2 sequence (P19643 1-520): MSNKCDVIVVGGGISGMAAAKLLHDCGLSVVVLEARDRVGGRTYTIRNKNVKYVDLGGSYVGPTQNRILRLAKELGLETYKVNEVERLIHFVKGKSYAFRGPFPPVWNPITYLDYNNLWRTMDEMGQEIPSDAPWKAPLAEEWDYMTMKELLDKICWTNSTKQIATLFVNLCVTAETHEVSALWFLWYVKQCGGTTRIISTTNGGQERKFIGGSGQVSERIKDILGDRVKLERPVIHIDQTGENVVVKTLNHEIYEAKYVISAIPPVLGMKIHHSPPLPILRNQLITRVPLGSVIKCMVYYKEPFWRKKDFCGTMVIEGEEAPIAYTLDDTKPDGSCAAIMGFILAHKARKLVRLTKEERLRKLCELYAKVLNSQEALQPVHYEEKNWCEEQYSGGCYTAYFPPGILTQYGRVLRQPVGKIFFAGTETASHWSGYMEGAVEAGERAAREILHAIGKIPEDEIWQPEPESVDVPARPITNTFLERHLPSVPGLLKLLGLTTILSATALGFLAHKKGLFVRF
Method: as §1, §2

Row | Structure (SMILES) | IC50 (rMAO-A) [µM] | IC50 (rMAO-B) [µM] | Fold lower IMAO activity than ChC4 (rMAO-B; rMAO-B, relative to ChC4) | rMAO-B inhibitory activity in vitro (in words) (rMAO-B)
1 | COc1ccc2cc(C(=O)/C=C/c3ccccc3O)c(=O)oc2c1 [ChC2, (E)-3-(3-(2-Hydroxyphenyl)acryloyl)-7-methoxy-2H-chromen-2-one] | > 10 | > 10 |  | loss of the inhibitory activity; also recorded: does not show in vitro activity
2 | COc1ccc2cc(C(=O)/C=C/c3cccc(O)c3)c(=O)oc2c1 [ChC4, (E)-3-(3-(3-hydroxyphenyl)acryloyl)-7-methoxy-2H-chromen-2-one] | > 10 | 0.76 ± 0.08 |  | 
3 | COc1cccc(/C=C/C(=O)c2cc3ccc(OC)cc3oc2=O)c1 [ChC5, (E)-7-methoxy-3-(3-(3-methoxyphenyl)acryloyl)-2H-chromen-2-one] | > 10 | 9.63 ± 0.9 | approximately 12 fold | 
4 | COc1ccc(OC)c(/C=C/C(=O)c2cc3ccc(OC)cc3oc2=O)c1 [ChC8, (E)-3-(3-(2,5-dimethoxyphenyl)acryloyl)-7-methoxy-2H-chromen-2-one] | > 10 | > 10 |  | 
5 | COc1ccc2cc(C(=O)/C=C/c3ccc(O)c(OC)c3)c(=O)oc2c1 [ChC10] | > 10 | > 10 |  | loss of the inhibitory activity
6 | COc1ccc2cc(C(=O)/C=C/c3ccc(SC)cc3)c(=O)oc2c1 [ChC11] | > 10 | 5.88 ± 0.57 |  | 
7 | COc1ccc2cc(C(=O)/C=C/c3cc(Br)c(OC)c(Br)c3)c(=O)oc2c1 [ChC12, (E)-3-(3-(3,5-dibromo-4-methoxyphenyl)acryloyl)-7-methoxy-2H-chromen-2-one] | > 10 | > 10 |  | 

Now from value to molecule, other results behind:

Row | IC50 (rMAO-A) [µM] | IC50 (rMAO-B) [µM] | Fold lower IMAO activity than ChC4 (rMAO-B; rMAO-B, relative to ChC4) | Structure (SMILES) | rMAO-B inhibitory activity in vitro (in words) (rMAO-B)
8 | > 10 | > 10 |  | COc1ccc2cc(C(=O)C=Cc3ccccc3)c(=O)oc2c1 [ChC1, 3-Cinnamoyl-7-methoxy-2H-chromen-2-one] | 
9 | > 10 | > 10 |  | COc1ccc2cc(C(=O)/C=C/c3ccccc3OC)c(=O)oc2c1 [ChC3, (E)-7-methoxy-3-(3-(2-methoxyphenyl)acryloyl)-2H-chromen-2-one] | 
10 | > 10 | 6.96 ± 0.07 |  | COc1ccc(/C=C/C(=O)c2cc3ccc(OC)cc3oc2=O)cc1 [ChC6, (E)-7-methoxy-3-(3-(4-methoxyphenyl)acryloyl)-2H-chromen-2-one] | 
11 | > 10 | 3.71 ± 0.68 |  | COc1ccc2cc(C(=O)/C=C/c3ccc4c(c3)OCO4)c(=O)oc2c1 [ChC9, (E)-3-(3-(benzo[d][1,3]dioxol-5-yl)acryloyl)-7-methoxy-2H-chromen-2-one] | 
12 | > 10 | > 10 |  | COc1ccc2cc(C(=O)/C=C/c3ccc(N(C)C)cc3)c(=O)oc2c1 [ChC13, (E)-3-(3-(4-(dimethylamino)phenyl)acryloyl)-7-methoxy-2H-chromen-2-one] | 
13 | > 10 | > 10 |  | COc1ccc2cc(C(=O)/C=C/c3ccc(Br)cc3)c(=O)oc2c1 [ChC14, (E)-3-(3-(4-bromophenyl)acryloyl)-7-methoxy-2H-chromen-2-one] | 

From article PMC8122463, “Coumarin-Chalcone Hybrids as Inhibitors of MAO-B: Biological Activity and In Silico Studies” (Molecules, 2021)
